The source of these data is US9771369B2, “Compounds and methods for kinase modulation, and indications therefor” (Plexxikon Inc., priority 2014, dated 2017).

The structures appear in SMILES notation.

The target of this assay is c-Kit kinase (Homo sapiens (Human), UniProt P10721). In words: c-Kit biochemical assay (AlphaScreen kinase activity). In outline: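 AlphaScreen: c-Kit phosphorylates biotin-(E4Y)3 (100 nM) at 10 μM ATP, pH 7.2 HEPES buffer with Mg/Mn, 5% DMSO, 1 h room temperature; streptavidin donor and PY30 acceptor beads detect product. Second format: 100 μM ATP, 30 nM biotin-(E4Y)10, pH 7.5. IC50 from 8-point 1:3 dilution curves.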
c-Kit kinase, sequence (P10721 26-976): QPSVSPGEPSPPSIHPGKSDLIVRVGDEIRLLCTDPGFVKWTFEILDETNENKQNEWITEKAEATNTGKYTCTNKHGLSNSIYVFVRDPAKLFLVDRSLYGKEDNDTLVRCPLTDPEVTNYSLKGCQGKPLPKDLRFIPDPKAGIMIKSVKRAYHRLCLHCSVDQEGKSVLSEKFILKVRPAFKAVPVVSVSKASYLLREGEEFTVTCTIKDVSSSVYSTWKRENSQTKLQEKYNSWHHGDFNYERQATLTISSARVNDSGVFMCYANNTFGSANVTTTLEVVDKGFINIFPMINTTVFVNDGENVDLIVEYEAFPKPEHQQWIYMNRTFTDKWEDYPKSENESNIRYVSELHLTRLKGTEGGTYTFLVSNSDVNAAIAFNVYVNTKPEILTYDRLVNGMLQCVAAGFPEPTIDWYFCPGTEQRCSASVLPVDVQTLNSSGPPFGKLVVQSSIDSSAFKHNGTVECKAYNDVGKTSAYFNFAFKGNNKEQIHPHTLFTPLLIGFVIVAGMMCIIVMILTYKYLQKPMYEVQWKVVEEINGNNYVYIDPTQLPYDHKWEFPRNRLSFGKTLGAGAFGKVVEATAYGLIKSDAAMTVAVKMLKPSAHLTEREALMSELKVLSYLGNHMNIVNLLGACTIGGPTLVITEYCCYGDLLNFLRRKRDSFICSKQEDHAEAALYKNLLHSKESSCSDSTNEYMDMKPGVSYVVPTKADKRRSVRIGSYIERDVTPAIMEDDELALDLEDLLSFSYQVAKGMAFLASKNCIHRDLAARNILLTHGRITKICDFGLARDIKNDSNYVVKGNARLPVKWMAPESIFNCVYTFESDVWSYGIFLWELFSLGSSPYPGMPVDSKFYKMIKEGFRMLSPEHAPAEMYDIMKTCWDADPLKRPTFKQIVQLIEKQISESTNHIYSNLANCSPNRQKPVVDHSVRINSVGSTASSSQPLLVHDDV
`CCOc1cc(-c2cc3c(N4CCC(c5nc(C)c(-c6ccccc6)[nH]5)CC4)ncnc3[nH]2)ccn1` [P-3075, 6-(2-ethoxy-4-pyridyl)-4-[4-(4-methyl-5-phenyl-1H-imidazol-2-yl)-1-piperidyl]-7H-pyrrolo[2,3-d]pyrimidine]: the IC50 lay within 0.0001 to 1 µM. The result for `Cc1nc(C2CCN(c3ncnc4[nH]c(-c5ccnc(N6CCOCC6)c5)cc34)CC2)[nH]c1-c1ccccc1` [P-3076, 4-[4-[4-[4-(4-methyl-5-phenyl-1H-imidazol-2-yl)-1-piperidyl]-7H-pyrrolo[2,3-d]pyrimidin-6-yl]-2-pyridyl]morpholine] reads 0.0001 to 1 µM; that for `Cc1nc(C2CCN(c3ncnc4[nH]c(-c5ccnc(N6CCC(C)CC6)c5)cc34)CC2)[nH]c1-c1ccccc1` [P-3077, 4-[4-(4-methyl-5-phenyl-1H-imidazol-2-yl)-1-piperidyl]-6-[2-(4-methyl-1-piperidyl)-4-pyridyl]-7H-pyrrolo[2,3-d]pyrimidine], 0.0001 to 1 µM. The result for `Cc1nc(C2CCN(c3ncnc4[nH]c(-c5ccnc(OC(C)C)c5)cc34)CC2)[nH]c1-c1ccccc1` [P-3078, 6-(2-isopropoxy-4-pyridyl)-4-[4-(4-methyl-5-phenyl-1H-imidazol-2-yl)-1-piperidyl]-7H-pyrrolo[2,3-d]pyrimidine] reads 0.0001 to 1 µM; that for `Cc1nc(C2CCN(c3ncnc4[nH]c(-c5ccnc(N6CCCC6)c5)cc34)CC2)[nH]c1-c1ccccc1` [P-3079, 4-[4-(4-methyl-5-phenyl-1H-imidazol-2-yl)-1-piperidyl]-6-(2-pyrrolidin-1-yl-4-pyridyl)-7H-pyrrolo[2,3-d]pyrimidine], 0.0001 to 1 µM; that for `Cc1nc(C2CCN(c3ncnc4[nH]c(-c5cccc(OC(F)(F)F)c5)cc34)CC2)[nH]c1-c1ccccc1` [P-3080, 4-[4-(4-methyl-5-phenyl-1H-imidazol-2-yl)-1-piperidyl]-6-[3-(trifluoromethoxy)phenyl]-7H-pyrrolo[2,3-d]pyrimidine], 1 to 10 µM.

Take `Cc1nc(C2CCN(c3ncnc4[nH]c(-c5cccc(F)c5)cc34)CC2)[nH]c1-c1ccccc1` [P-3081, 6-(3-fluorophenyl)-4-[4-(4-methyl-5-phenyl-1H-imidazol-2-yl)-1-piperidyl]-7H-pyrrolo[2,3-d]pyrimidine]: the IC50 was 0.0001 to 1 µM.

Molecule `Cc1nc(C2CCN(c3ncnc4[nH]c(-c5cccc(NS(C)(=O)=O)c5)cc34)CC2)[nH]c1-c1ccccc1` [P-3083, N-[3-[4-[4-(4-methyl-5-phenyl-1H-imidazol-2-yl)-1-piperidyl]-7H-pyrrolo[2,3-d]pyrimidin-6-yl]phenyl]methane sulfonamide] returned an IC50 of 0.0001 to 1 µM. The result for `Cc1nc(C2CCN(c3ncnc4[nH]c(-c5ccc(F)cc5)cc34)CC2)[nH]c1-c1ccc2c(c1)OCCO2` [P-3084, 4-[4-[5-(2,3-dihydro-1,4-benzodioxin-6-yl)-4-methyl-1H-imidazol-2-yl]-1-piperidyl]-6-(4-fluorophenyl)-7H-pyrrolo[2,3-d]pyrimidine] reads 0.0001 to 1 µM. With `Cc1nc(C2CCN(c3ncnc4[nH]c(-c5ccc(F)cc5)cc34)CC2)[nH]c1-c1ccc(OC(F)(F)F)cc1` [P-3085, 6-(4-fluorophenyl)-4-[4-[4-methyl-5-[4-(trifluoromethoxy)phenyl]-1H-imidazol-2-yl]-1-piperidyl]-7H-pyrrolo[2,3-d]pyrimidine], the IC50 lay in the range of 0.0001 to 1 µM. As for `Cc1nc(C2CCN(c3ncnc4[nH]c(-c5ccc(C#N)cc5)cc34)CC2)[nH]c1-c1ccc(OC(F)(F)F)cc1` [P-3086, 4-[4-[4-[4-methyl-5-[4-(trifluoromethoxy)phenyl]-1H-imidazol-2-yl]-1-piperidyl]-7H-pyrrolo[2,3-d]pyrimidin-6-yl]benzonitrile], the figure is 1 to 10 µM. Consider `COc1cc(-c2cc3c(N4CCC(c5nc(C)c(-c6ccc(OC(F)(F)F)cc6)[nH]5)CC4)ncnc3[nH]2)ccn1` [P-3087, 6-(2-methoxy-4-pyridyl)-4-[4-[4-methyl-5-[4-(trifluoromethoxy)phenyl]-1H-imidazol-2-yl]-1-piperidyl]-7H-pyrrolo[2,3-d]pyrimidine], for which the IC50 was in the range of 1 to 10 µM.

Molecule `COc1cc(-c2cc3c(N4CCC(c5nc(C)c(-c6ccc(C)cc6)[nH]5)CC4)ncnc3[nH]2)ccn1` [P-3088, 6-(2-methoxy-4-pyridyl)-4-[4-[4-methyl-5-(p-tolyl)-1H-imidazol-2-yl]-1-piperidyl]-7H-pyrrolo[2,3-d]pyrimidine] had an IC50 of 0.0001 to 1 µM. The result for `COc1ccc(-c2[nH]c(C3(C)CCN(c4ncnc5[nH]c(-c6ccc(C#N)nc6)cc45)CC3)nc2C)cc1C` [P-3250, 5-[4-[4-[5-(4-methoxy-3-methyl-phenyl)-4-methyl-1H-imidazol-2-yl]-4-methyl-1-piperidyl]-7H-pyrrolo[2,3-d]pyrimidin-6-yl]pyridine-2-carbonitrile] reads 0.0001 to 1 µM. The molecule `CCOc1ccc(-c2[nH]c(C3(C)CCN(c4ncnc5[nH]c(-c6ccc(C#N)nc6)cc45)CC3)nc2C)cc1` [P-3251, 5-[4-[4-[5-(4-ethoxyphenyl)-4-methyl-1H-imidazol-2-yl]-4-methyl-1-piperidyl]-7H-pyrrolo[2,3-d]pyrimidin-6-yl]pyridine-2-carbonitrile] returned an IC50 of 0.0001 to 1 µM. `Cc1nc(C2(C)CCN(c3ncnc4[nH]c(-c5ccc(NS(C)(=O)=O)cc5)cc34)CC2)[nH]c1-c1ccc(C(F)F)cc1` [P-3252, N-[4-[4-[4-[5-[4-(difluoromethyl)phenyl]-4-methyl-1H-imidazol-2-yl]-4-methyl-1-piperidyl]-7H-pyrrolo[2,3-d]pyrimidin-6-yl]phenyl]methanesulfonamide] came in with an IC50 of 0.0001 to 1 µM. In the case of `Cc1nc(C2(C)CCN(c3ncnc4[nH]c(-c5ccc(C(N)=O)cc5)cc34)CC2)[nH]c1-c1ccc(OC(F)F)cc1` [P-3253, 4-[4-[4-[5-[4-(difluoromethoxy)phenyl]-4-methyl-1H-imidazol-2-yl]-4-methyl-1-piperidyl]-7H-pyrrolo[2,3-d]pyrimidin-6-yl]benzamide], the IC50 was 0.0001 to 1 µM. For the molecule `Cc1nc(C2(C)CCN(c3ncnc4[nH]c(-c5ccc(NS(C)(=O)=O)cc5)cc34)CC2)[nH]c1-c1ccc(OC(F)F)cc1` [P-3254, N-[4-[4-[4-[5-[4-(difluoromethoxy)phenyl]-4-methyl-1H-imidazol-2-yl]-4-methyl-1-piperidyl]-7H-pyrrolo[2,3-d]pyrimidin-6-yl]phenyl]methanesulfonamide], the concentration for half-maximal inhibition (IC50) was 0.0001 to 1 µM.

`Cc1nc(C2(C)CCN(c3ncnc4[nH]c(-c5ccc(C#N)nc5)cc34)CC2)[nH]c1-c1cccc(OC(F)F)c1` [P-3255, 5-[4-[4-[5-[3-(difluoromethoxy)phenyl]-4-methyl-1H-imidazol-2-yl]-4-methyl-1-piperidyl]-7H-pyrrolo[2,3-d]pyrimidin-6-yl]pyridine-2-carbonitrile] came in with an IC50 of 1 to 10 µM. The result for `COc1cccc(-c2[nH]c(C3(C)CCN(c4ncnc5[nH]c(-c6ccc(C#N)nc6)cc45)CC3)nc2C)c1` [P-3256, 5-[4-[4-[5-(3-methoxyphenyl)-4-methyl-1H-imidazol-2-yl]-4-methyl-1-piperidyl]-7H-pyrrolo[2,3-d]pyrimidin-6-yl]pyridine-2-carbonitrile] reads 0.0001 to 1 µM.
